# Measurements: patent publication US10781224B2, “Bis(oxymethyl)phosphinic acid and biogenic metal salts thereof as regulators of plant growth and development” (priority 2016, dated 2020)
# Assays:
# rice (Diamant variety) = test: Rice seed treatment with BHMPA salts: germinating power; assay type: in vivo; conditions: for Length, root / Length, root, + % to control / Length, sprout / Length, sprout, + % to control / Mass, dry, root / Mass, dry, root, + % to control / Mass, dry, sprout / Mass, dry, sprout, + % to control / Mass, wet, root / Mass, wet, root, + % to control / Mass, wet, sprout / Mass, wet, sprout, + % to control: rice seed treatment
# Summary of the method: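 Seeds (50 per Petri dish on two layers of filter paper) soaked 1 h in BHMPA or its Ca, Mg, Na, Co, Mn, Cu or Zn salts at 1·10^−6-1·10^−12%, with water controls. Germination energy read on day 4, germination on day 8 (wheat) or day 7 (rice, corn), as % means of four replicates. Germinating power taken as root and sprout length plus wet and dry mass per 100 seedlings.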
# [1] = system: winter wheat (Vershin variety); test: Winter wheat seed treatment with BHMPA salts: germination energy and germination rate; assay type: in vivo
# Summary of the method: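 Corn, winter wheat and rice seeds (50 per dish, on filter paper) were soaked for 1 h in BHMPA or its metal salts at 1·10^−6-1·10^−12%, with water as control. Germination energy was read on day 4 and germination rate on day 8 for wheat and day 7 for rice and corn, following GOST 12038-84, as the mean of four replicates.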
# [2] = comparison with Melaphen (Table XXXIII), solution 1 · 10^−9%
# [3] = experimental solution 1 · 10^−6%
# [4] = experimental solution 1 · 10^−7%
# [5] = experimental solution 1 · 10^−8%
# [6] = experimental solution 1 · 10^−9%
# [7] = experimental solution 1 · 10^−10%
# [8] = experimental solution 1 · 10^−11%
# [9] = experimental solution 1 · 10^−12%
# [10] = rice, vs control, 1·10^−9% solution
# [11] = winter wheat Vershin, 1·10^−6% solution
# [12] = winter wheat Vershin, 1·10^−7% solution
# [13] = winter wheat Vershin, 1·10^−8% solution
# [14] = winter wheat Vershin, 1·10^−9% solution
# [15] = winter wheat Vershin, 1·10^−10% solution
# [16] = winter wheat Vershin, 1·10^−11% solution
# [17] = winter wheat Vershin, 1·10^−12% solution
# [18] = winter wheat, comparative study vs Melaphen, 1·10^−9% solution
compound,measurement,setting,value
"O=P([O-])(CO)CO.O=P([O-])(CO)CO.[Zn+2] [Zn-salt, Zinc BHMPA Salt]",optimum concentration for treating rice seeds before sowing,rice (Diamant variety); rice,1·10^−9%
same,"Length, root",rice (Diamant variety); [2],7.5 cm
same,"Length, root, + % to control",rice (Diamant variety); [2],56%
same,"Length, sprout",rice (Diamant variety); [2],4.8 cm
same,"Length, sprout, + % to control",rice (Diamant variety); [2],48%
same,"Mass, dry, root",rice (Diamant variety); [2],0.28 g/100 plantlings
same,"Mass, dry, root, + % to control",rice (Diamant variety); [2],33%
same,"Mass, dry, sprout",rice (Diamant variety); [2],0.32 g/100 plantlings
same,"Mass, dry, sprout, + % to control",rice (Diamant variety); [2],28%
same,"Mass, wet, root",rice (Diamant variety); [2],1.54 g/100 plantlings
same,"Mass, wet, root, + % to control",rice (Diamant variety); [2],57%
same,"Mass, wet, sprout",rice (Diamant variety); [2],2.57 g/100 plantlings
same,"Mass, wet, sprout, + % to control",rice (Diamant variety); [2],70%
same,"Length, root",rice (Diamant variety); [3],6.2 cm
same,"Length, root, + % to control",rice (Diamant variety); [3],15%
same,"Length, sprout",rice (Diamant variety); [3],2.6 cm
same,"Length, sprout, + % to control",rice (Diamant variety); [3],8%
same,"Mass, dry, root",rice (Diamant variety); [3],0.19 g/100 plantlings
same,"Mass, dry, root, + % to control",rice (Diamant variety); [3],12%
same,"Mass, dry, sprout",rice (Diamant variety); [3],0.23 g/100 plantlings
same,"Mass, dry, sprout, + % to control",rice (Diamant variety); [3],4.5%
same,"Mass, wet, root",rice (Diamant variety); [3],1.04 g/100 plantlings
same,"Mass, wet, root, + % to control",rice (Diamant variety); [3],24%
same,"Mass, wet, sprout",rice (Diamant variety); [3],1.81 g/100 plantlings
same,"Mass, wet, sprout, + % to control",rice (Diamant variety); [3],24%
same,"Length, root",rice (Diamant variety); [4],6.6 cm
same,"Length, root, + % to control",rice (Diamant variety); [4],22%
same,"Length, sprout",rice (Diamant variety); [4],2.8 cm
same,"Length, sprout, + % to control",rice (Diamant variety); [4],17%
same,"Mass, dry, root",rice (Diamant variety); [4],0.22 g/100 plantlings
same,"Mass, dry, root, + % to control",rice (Diamant variety); [4],29%
same,"Mass, dry, sprout",rice (Diamant variety); [4],0.27 g/100 plantlings
same,"Mass, dry, sprout, + % to control",rice (Diamant variety); [4],23%
same,"Mass, wet, root",rice (Diamant variety); [4],1.21 g/100 plantlings
same,"Mass, wet, root, + % to control",rice (Diamant variety); [4],44%
same,"Mass, wet, sprout",rice (Diamant variety); [4],2.10 g/100 plantlings
same,"Mass, wet, sprout, + % to control",rice (Diamant variety); [4],44%
same,"Length, root",rice (Diamant variety); [5],6.8 cm
same,"Length, root, + % to control",rice (Diamant variety); [5],26%
same,"Length, sprout",rice (Diamant variety); [5],3.1 cm
same,"Length, sprout, + % to control",rice (Diamant variety); [5],29%
same,"Mass, dry, root",rice (Diamant variety); [5],0.24 g/100 plantlings
same,"Mass, dry, root, + % to control",rice (Diamant variety); [5],41%
same,"Mass, dry, sprout",rice (Diamant variety); [5],0.28 g/100 plantlings
same,"Mass, dry, sprout, + % to control",rice (Diamant variety); [5],27%
same,"Mass, wet, root",rice (Diamant variety); [5],1.29 g/100 plantlings
same,"Mass, wet, root, + % to control",rice (Diamant variety); [5],53.5%
same,"Mass, wet, sprout",rice (Diamant variety); [5],2.27 g/100 plantlings
same,"Mass, wet, sprout, + % to control",rice (Diamant variety); [5],55%
same,"Length, root",rice (Diamant variety); [6],7.0 cm
same,"Length, root, + % to control",rice (Diamant variety); [6],30%
same,"Length, sprout",rice (Diamant variety); [6],3.6 cm
same,"Length, sprout, + % to control",rice (Diamant variety); [6],50%
same,"Mass, dry, root",rice (Diamant variety); [6],0.27 g/100 plantlings
same,"Mass, dry, root, + % to control",rice (Diamant variety); [6],59%
same,"Mass, dry, sprout",rice (Diamant variety); [6],0.33 g/100 plantlings
same,"Mass, dry, sprout, + % to control",rice (Diamant variety); [6],50%
same,"Mass, wet, root",rice (Diamant variety); [6],1.32 g/100 plantlings
same,"Mass, wet, root, + % to control",rice (Diamant variety); [6],57%
same,"Mass, wet, sprout",rice (Diamant variety); [6],2.31 g/100 plantlings
same,"Mass, wet, sprout, + % to control",rice (Diamant variety); [6],58%
same,"Length, root",rice (Diamant variety); [7],6.9 cm
same,"Length, root, + % to control",rice (Diamant variety); [7],28%
same,"Length, sprout",rice (Diamant variety); [7],3.2 cm
same,"Length, sprout, + % to control",rice (Diamant variety); [7],33%
same,"Mass, dry, root",rice (Diamant variety); [7],0.25 g/100 plantlings
same,"Mass, dry, root, + % to control",rice (Diamant variety); [7],47%
same,"Mass, dry, sprout",rice (Diamant variety); [7],0.31 g/100 plantlings
same,"Mass, dry, sprout, + % to control",rice (Diamant variety); [7],41%
same,"Mass, wet, root",rice (Diamant variety); [7],1.26 g/100 plantlings
same,"Mass, wet, root, + % to control",rice (Diamant variety); [7],50%
same,"Mass, wet, sprout",rice (Diamant variety); [7],2.17 g/100 plantlings
same,"Mass, wet, sprout, + % to control",rice (Diamant variety); [7],49%
same,"Length, root",rice (Diamant variety); [8],6.7 cm
same,"Length, root, + % to control",rice (Diamant variety); [8],24%
same,"Length, sprout",rice (Diamant variety); [8],2.8 cm
same,"Length, sprout, + % to control",rice (Diamant variety); [8],17%
same,"Mass, dry, root",rice (Diamant variety); [8],0.22 g/100 plantlings
same,"Mass, dry, root, + % to control",rice (Diamant variety); [8],29%
same,"Mass, dry, sprout",rice (Diamant variety); [8],0.29 g/100 plantlings
same,"Mass, dry, sprout, + % to control",rice (Diamant variety); [8],32%
same,"Mass, wet, root",rice (Diamant variety); [8],1.19 g/100 plantlings
same,"Mass, wet, root, + % to control",rice (Diamant variety); [8],42%
same,"Mass, wet, sprout",rice (Diamant variety); [8],2.09 g/100 plantlings
same,"Mass, wet, sprout, + % to control",rice (Diamant variety); [8],43%
same,"Length, root",rice (Diamant variety); [9],5.9 cm
same,"Length, root, + % to control",rice (Diamant variety); [9],9%
same,"Length, sprout",rice (Diamant variety); [9],2.7 cm
same,"Length, sprout, + % to control",rice (Diamant variety); [9],12.5%
same,"Mass, dry, root",rice (Diamant variety); [9],0.19 g/100 plantlings
same,"Mass, dry, root, + % to control",rice (Diamant variety); [9],12%
same,"Mass, dry, sprout",rice (Diamant variety); [9],0.25 g/100 plantlings
same,"Mass, dry, sprout, + % to control",rice (Diamant variety); [9],14%
same,"Mass, wet, root",rice (Diamant variety); [9],1.05 g/100 plantlings
same,"Mass, wet, root, + % to control",rice (Diamant variety); [9],25%
same,"Mass, wet, sprout",rice (Diamant variety); [9],1.70 g/100 plantlings
same,"Mass, wet, sprout, + % to control",rice (Diamant variety); [9],16%
same,dry mass of the roots increased by,rice (Diamant variety); [10],59%
same,dry mass of the sprouts increased by,rice (Diamant variety); [10],50%
same,length of the root increased by,rice (Diamant variety); [10],30%
same,length of the sprout increased by,rice (Diamant variety); [10],50%
same,wet mass of the roots increased by,rice (Diamant variety); [10],57%
same,wet mass of the sprouts increased by,rice (Diamant variety); [10],58%
same,Germination energy,[1]; [11],91.9%
same,Germination rate,[1]; [11],95.3%
same,Germination energy,[1]; [12],92.7%
same,Germination rate,[1]; [12],96.0%
same,Germination energy,[1]; [13],94.1%
same,Germination rate,[1]; [13],97.3%
same,Germination energy,[1]; [14],96.1%
same,Germination rate,[1]; [14],98.3%
same,Germination energy,[1]; [15],95.4%
same,Germination rate,[1]; [15],97.3%
same,Germination energy,[1]; [16],93.2%
same,Germination rate,[1]; [16],96.0%
same,Germination energy,[1]; [17],92.3%
same,Germination rate,[1]; [17],96.0%
same,Germination energy,[1]; [18],94.0%
same,Germination rate,[1]; [18],97.3%
